# Experimental data: patent US11452727B2, “Combination therapy for treating cancer” (Epizyme, Inc., priority 2017, dated 2022)
# Tests used:
# Test in all cases: In vitro combination study with tazemetostat, cell proliferation (Cell Titer Glo)
# [1] = tested on: NCI-H2110; conditions: 7 days tazemetostat pre-treatment, 6 days co-treatment with second agent
# Experimental: (§1) Initial proliferation studies were performed to determine the IC50 of tazemetostat in each cell line. For the screen, tazemetostat was used at concentrations bracketed around the IC50 value. If 50% inhibitory concentration was not reached then tazemetostat was tested starting at 10 μM.
# (§2) In order to study the effect of dual combination of tazemetostat and a second agent on cell proliferation, cells in log-linear phase growth rate were pre-treated with various concentrations of tazemetostat or DMSO for 7 days in flasks, plated in 384-well plates in the absence of compounds and co-treated on day 8 with tazemetostat or DMSO and the second agent serially diluted for additional 6 days (as depicted in FIG. 1). On day 15, plates were developed for endpoint analysis using Cell Titer Glo to measure ATP content, which was used as an indicator of cell viability. DMSO concentration was kept constant throughout the assay at 0.15% v/v.
# [2] = tested on: NCI-H1793; conditions: 7 days tazemetostat pre-treatment, 6 days co-treatment with second agent
# [3] = tested on: A549; conditions: 7 days tazemetostat pre-treatment, 6 days co-treatment with second agent
# [4] = tested on: HCC827; conditions: 7 days tazemetostat pre-treatment, 6 days co-treatment with second agent
# Experimental: as §1, §2
# (§3) NCI-H1573 was cultured in DMEM: F12 Medium containing the following components: 0.02 mg/ml insulin, 0.01 mg/ml transferrin, 25 nM sodium selenite, 50 nM Hydrocortisone, 1 ng/ml Epidermal Growth Factor, 0.01 mM ethanolamine, 0.01 mM phosphorylethanolamine, 100 pM triiodothyronine, 0.5% (w/v) bovine serum albumin, 0.5 mM sodium pyruvate, 4.5 mM L-glutamine and 1% v/v Pen/Strep.
# [5] = tested on: NCI-H1573; conditions: 7 days tazemetostat pre-treatment, 6 days co-treatment with second agent
# [6] = tested on: NCI-H1703; conditions: 7 days tazemetostat pre-treatment, 6 days co-treatment with second agent
# Experimental: as §1, §2
# [7] = tested on: NCI-H1993; conditions: 7 days tazemetostat pre-treatment, 6 days co-treatment with second agent
# [8] = tested on: Calu-6; conditions: 7 days tazemetostat pre-treatment, 6 days co-treatment with second agent
# Experimental: as §1, §2
# [9] = tested on: Calu-3; conditions: 7 days tazemetostat pre-treatment, 6 days co-treatment with second agent
# Experimental: as §1, §2, §3
# [10] = tested on: NCI-H460; conditions: 7 days tazemetostat pre-treatment, 6 days co-treatment with second agent
# Experimental: as §1, §2
# (§4) All cell lines were obtained from American Type Culture Collection (ATCC; Rockville, Md.). […] A427, Calu-3, Calu-6 cell lines were cultured in EMEM+10% Fetal bovine serum (FBS)+1% v/v Penicillin/Streptomycin (P/S).
# [11] = tested on: NCI-H1299; conditions: 7 days tazemetostat pre-treatment, 6 days co-treatment with second agent
# Experimental: as §1, §2
# [12] = tested on: NCI-H522; conditions: 7 days tazemetostat pre-treatment, 6 days co-treatment with second agent
# [13] = tested on: A427; conditions: A427; 7 days tazemetostat pre-treatment, 6 days co-treatment with second agent
# [14] = tested on: NCI-H2030; conditions: 7 days tazemetostat pre-treatment, 6 days co-treatment with second agent
# Experimental: as §1, §2
# [15] = tested on: NCI-H23; conditions: 7 days tazemetostat pre-treatment, 6 days co-treatment with second agent
# [16] = tested on: NCI-H2122; conditions: 7 days tazemetostat pre-treatment, 6 days co-treatment with second agent
# [17] = tested on: NCI-H838; conditions: 7 days tazemetostat pre-treatment, 6 days co-treatment with second agent
# [18] = tested on: NCI-H661; conditions: 7 days tazemetostat pre-treatment, 6 days co-treatment with second agent
# Experimental: as §1, §2, §4
Compound,combinatorial effect with tazemetostat (Loewe volume class) [1],combinatorial effect with tazemetostat (Loewe volume class) [2],combinatorial effect with tazemetostat (Loewe volume class) [3],combinatorial effect with tazemetostat (Loewe volume class) [4],combinatorial effect with tazemetostat (Loewe volume class) [5],combinatorial effect with tazemetostat (Loewe volume class) [6],combinatorial effect with tazemetostat (Loewe volume class) [7],combinatorial effect with tazemetostat (Loewe volume class) [8],combinatorial effect with tazemetostat (Loewe volume class) [9],combinatorial effect with tazemetostat (Loewe volume class) [10],combinatorial effect with tazemetostat (Loewe volume class) [11],combinatorial effect with tazemetostat (Loewe volume class) [12],combinatorial effect with tazemetostat (Loewe volume class) [13],combinatorial effect with tazemetostat (Loewe volume class) [14],combinatorial effect with tazemetostat (Loewe volume class) [15],combinatorial effect with tazemetostat (Loewe volume class) [16],combinatorial effect with tazemetostat (Loewe volume class) [17],combinatorial effect with tazemetostat (Loewe volume class) [18]
"N.N.[Cl][Pt][Cl] [Cisplatin, cisplatin]",Add. (A value between −1 and 1 denoted “additivity”),No eff.,Syn. (Loewe volumes greater than 1 denoted “synergy”),Add. (A value between −1 and 1 denoted “additivity”),Add. (A value between −1 and 1 denoted “additivity”),No eff.,Syn. (Loewe volumes greater than 1 denoted “synergy”),Add. (A value between −1 and 1 denoted “additivity”),Syn. (Loewe volumes greater than 1 denoted “synergy”),Add. (A value between −1 and 1 denoted “additivity”),No eff.,Anta. (volumes <−1 denoted “antagonism”),Syn. (Loewe volumes greater than 1 denoted “synergy”),Syn. (Loewe volumes greater than 1 denoted “synergy”),Add. (A value between −1 and 1 denoted “additivity”),Anta. (volumes <−1 denoted “antagonism”),Add. (A value between −1 and 1 denoted “additivity”),Syn. (Loewe volumes greater than 1 denoted “synergy”)
"O=C(CCCCCCC(=O)Nc1ccccc1)NO [Vorinostat, vorinostat]",Add. (A value between −1 and 1 denoted “additivity”),Syn. (Loewe volumes greater than 1 denoted “synergy”),Add. (A value between −1 and 1 denoted “additivity”),Add. (A value between −1 and 1 denoted “additivity”),Syn. (Loewe volumes greater than 1 denoted “synergy”),Syn. (Loewe volumes greater than 1 denoted “synergy”),Add. (A value between −1 and 1 denoted “additivity”),Syn. (Loewe volumes greater than 1 denoted “synergy”),Add. (A value between −1 and 1 denoted “additivity”),Syn. (Loewe volumes greater than 1 denoted “synergy”),Add. (A value between −1 and 1 denoted “additivity”),Syn. (Loewe volumes greater than 1 denoted “synergy”),Syn. (Loewe volumes greater than 1 denoted “synergy”),Syn. (Loewe volumes greater than 1 denoted “synergy”),Syn. (Loewe volumes greater than 1 denoted “synergy”),Add. (A value between −1 and 1 denoted “additivity”),Add. (A value between −1 and 1 denoted “additivity”),Add. (A value between −1 and 1 denoted “additivity”)
